The values below come from EP2116236A1, “Bisbenzamidine derivatives for use as antioxidant” (Université de Mons-Hainaut, priority 2008, dated 2009).

The nature of test [1]: superoxide dismutase activity: inhibition of pyrogallol auto-oxidation. It is filed as biochemical. As to conditions: for Percent inhibition of the rate of pyrogallol auto-oxidation: compound 0.5 mM, pyrogallol 0.750 mM, TRIS saline buffer pH 7.4, first two minutes, average of three measures. Here is the method: The pyrogallol auto-oxidation was measured at 420 nm according to the procedure Marklund & Marklund as reported in Vamecq et al. (2003). The incubation medium comprised TRIS saline buffer at pH 7.4 (5 mM TRIS, 50 mM NaCl) with either the vehicle (DMSO) or one of the compounds (final concentration 0.5 mM ) dissolved in DMSO. The reaction was triggered by the addition of pyrogallol (0.750 mM).
The results are given as percent inhibition of the rate of pyrogallol auto-oxidation measured during the first two minutes.

The subject of a further test is audiogenic seizure. Description: audiogenic seizure test in magnesium deficient animals. It is filed as in vivo. Here is the method: (§1) The tests were performed in rodents as described in J. Vamecq et al. Eur. J. Neurosc. 2003, 18, 1110. The results are shown in Table 1, wherein ScPtz refers to subcutaneous pentylenetetrazol, MES refers to Maximal Electroshock Seizures, MCS refers to Maximal Clonic Seizures, and ND means "not determined". The results are given as ED50 in mg/kg.

Another test has as its system chemical seizure (scPtz). Description: subcutaneous pentylenetetrazol (scPtz) induced chemical seizure test. It is filed as in vivo. The conditions noted are these: Mus musculus, ip. Here is the method: as §1
Test [2] has as its system electrical seizure MES (50 Hz). Description: Maximal Electroshock Seizures (MES) test. Format: in vivo. As to conditions: Mus musculus, ip. Here is the method:
as §1

The nature of test [3]: glutathione peroxidase activity: stimulation of peroxide-induced oxidation of reduced glutathione. It is filed as biochemical. As to conditions: for Effects of the compounds on the oxidation rate (%): average glutathione oxidation rate, vehicle control = 100 %, 2 mM reduced glutathione, 10 µl 50 mM compound in 1 mL, pH 7.4; for Glutathione peroxidase activity: 2 mM reduced Glutathione. Here is the method: The activity of glutathione peroxidase compounds refers to the stimulation by the compounds of the peroxide-induced oxidation of reduced glutathione (H2O2, t-butyl-hydroperoxide or cumene hydroperoxide). […] The formation of oxidized glutathione results in the oxidation of NADPH in the presence of glutathione reductase. The NADPH oxidation is then measured and reflects the formation of oxidized glutathione. In view of the absorbance of the compounds, NADPH oxidation was measured by the fluorescent emission at 466 nm when excited at 366 nm, which a corrected quenching.
The glutathione oxidation was measured in the presence of NADPH and glutathione reductase in 1 ml cell by fluorimetry (λexcitation = 366 nm and λemission= 466 nm). The cell contained 1 mL of 10 mM phosphate buffer pH 7.4, 0.25 mM NADPH, 10 µl DMSO (or 10 µl 50 mM compound dissolved in DMSO), 2 mM reduced glutathione and two units of glutathione reductase (Saccharomyces cerevisiae). The reaction was triggered by the addition of peroxide (5 mM t-butyl-hydroperoxide). A stimulation of the rate of peroxide-induced oxidation of glutathione was considered as glutathione peroxidase activity.

Test [4] has as its system electrical seizure MCS (6 Hz). Description: Maximal Clonic Seizures (MCS) 6 Hz electroshock test. It is filed as in vivo. Here is the method:
as §1

For `CN(CCNc1ccc(C(=N)N)cc1)c1ccc(C(=N)N)cc1` [Compound 4, 4,4'-(N-methyl 1,2-ethanediyldiimino)bis(benzenecarboximidamide)], the “Percent inhibition of the rate of pyrogallol auto-oxidation” value (from here on “Percent inhibition”) in test [1] is listed as 17.5%. Also, the “audiogenic seizure (mouse ip) ED50” value in the test on audiogenic seizure is listed as “little activity at non toxic doses”. The ED50 (in the test on chemical seizure (scPtz); in test [2]) was more than 100 mg/kg in each case. The “Effects of the compounds on the oxidation rate (%)” value (“Effects of the compounds … (%)” for short) in test [3] (5 mM t-butyl-hydroperoxide) was 107%.

Take `N=C(N)c1ccc(NCCNc2ccc(C(=N)N)cc2)cc1` [Compound 2, 4,4'-(1,2-ethanediyldiimino)bisbenzenecarboximidamide]: in test [1], the “Percent inhibition” value is on record as 36.3%. Besides, in test [4], the “electrical seizure MCS (6 Hz) (mouse ip) ED50” value is reported as “ED50 = 48.95 mg/kg”. In addition, the ED50 (commonly the dose that gives a 50% effect, or the effect in half of the subjects) was 60 to 100 mg/kg in test [4] (Mus musculus, ip); 6.9 mg/kg in the test with audiogenic seizure (mouse ip); more than 300 mg/kg in the test on chemical seizure (scPtz). The “audiogenic seizure (mouse ip) ED50” value in the test with audiogenic seizure was “active”. For the same compound, the “Effects of the compounds … (%)” value in test [3] (5 mM t-butyl-hydroperoxide) is reported as less than 100%.

As to `CCN(CCNc1ccc(C(=N)N)cc1)c1ccc(C(=N)N)cc1` [Compound 5, 4,4'-(N-ethyl-1,2-ethanediyldiimino)bis(benzenecarboximidamide)], in test [1], the “Percent inhibition” value amounted to 28.8%. The “audiogenic seizure (mouse ip) ED50” value in the test on audiogenic seizure is “little activity at non toxic doses”. Moreover, the 50% effective dose (ED50) with chemical seizure (scPtz) was more than 30 mg/kg. In addition, in test [3] (5 mM t-butyl-hydroperoxide), the “Effects of the compounds … (%)” value is given as 105%.

Consider `CN(CCN(C)c1ccc(C(=N)N)cc1)c1ccc(C(=N)N)cc1` [Compound 3, 4,4'-[1,2-ethanediyl (N,N'-dimethyl bisnitrilo)]bis(benzenecarboximidamide)], for which the “Percent inhibition” value in test [1] is listed as 51.0%. For the same compound, in the test with audiogenic seizure, the “audiogenic seizure (mouse ip) ED50” value is on record as “little activity at non toxic doses”. Also, the ED50 in the test on chemical seizure (scPtz) is more than 300 mg/kg. The Glutathione peroxidase activity in test [3] (2.5 mM cumene hydroperoxide) is recorded as 128%; in test [3] (2.5 mM hydrogen peroxide), 117%; in test [3] (5 mM hydrogen peroxide) it was 108%; in test [3] (5 mM t-butyl-hydroperoxide) it was 197%. For the same compound, in test [3] (5 mM t-butyl-hydroperoxide), the “Effects of the compounds … (%)” value is on record as 197%.

With `N=C(N)c1ccc(N)cc1` [4-aminobenzaminidine, 4-aminobenzamidine, reference compound], the “Percent inhibition” value in test [1] is on record as less than 5%. Besides, the “scavenging activity toward the superoxide anion” value in test [1] (result in words) is given as “does not have any scavenging activity”.
